Measured values: patent US11110126B2, “Method of expanding NK cell and composition for culturing” (Korea University Research and Business Foundation, priority 2015, dated 2021)

How the values were obtained:
[1] = test system: NK cells; assay: Influence of ROS and/or p53 inhibitor on ex-vivo culture (expansion) of NK cells, cell number by hemocytometer; format: cell-based, human; conditions: PBMC-derived NK cells cultured 10 days, then inhibitor at three-day intervals, counted after culture for 2 weeks; apocynin 400 μM, trolox 50 μM, pifithrin-α 1 μM, combination 50 μM trolox + 500 nM pifithrin-α
Procedure: Human blood was prepared, and subjected to centrifugation at 2500 rpm for 30 minutes using Ficoll (Ficoll-Paque™ PLUS, GE Healthcare). Then, peripheral blood mononuclear cells were isolated from a buffy coat. Afterward, a Jurkat cell line irradiated at 100 Gy and an EBV-LCL cell line were co-cultured with PBMCs:KL-1:EBV-LCL in a ratio of 1:0.5:0.5 in hRPMI medium prepared by adding 10% FBS and 1% penicillin/streptomycin to RPMI1640 medium in the presence of 500 U/ml IL-2, and the medium was exchanged with hRPMI medium supplemented with 500 U/ml IL-2 once for 2 to 3 days. To examine the influence of an ROS inhibitor on NK cells, the NK cells were cultured for 10 days under the conditions of Preparation Example 1. Then, 400 μM of an apocynin (Calbiochem), 50 μM of trolox (Santa Cruz) and 1 μM of pifithrin-α (Santa Cruz) were treated individually, and 50 μM trolox and 500 nM pifithrin-α were treated in a combination. The inhibitor was treated at three-day intervals, and a cell number was assessed after culture for 2 weeks. Here, the medium was exchanged with hRPMI medium added with 500 U/ml of IL-2 once for three days, and a cell number was calculated using a hemocytometer.

[2] = test system: NK cells; assay: ROS generation in in vitro-expanded NK cells (DCF-DA flow cytometry); format: cell-based, human; conditions: 100 μM DCF-DA; for order of ROS generation among treated groups: rank order of groups, lowest ROS first
Procedure: To measure ROS generated in in vitro-expanded NK cells, NK cells cultured by treatment with an inhibitor individually or in combination were harvested. 1×10^6 cells were seeded per well in a 24-well plate, cultured in a 5% CO2 incubator for 30 minutes, and then collected. The cells were washed once with 1 ml of PBS, followed by flow cytometry using 100 μM DCF-DA. The experiment was performed on a control group which was not treated, and experimental groups treated with apocynin, trolox, pifithrin-α and trolox+pifithrin-α, respectively, and the results are shown in FIG. 9.

COc1cc(C(C)=O)ccc1O [apocynin, 1-(4-hydroxy-3-methoxyphenyl)-ethanone]
NK cell number compared with the control group [1]: statistically significant increase
order of ROS generation among treated groups [2]: trolox<pifithrin-α<trolox+pifithrin-α<apocynin<control group

Br.Cc1ccc(C(=O)Cn2c3c(sc2=N)CCCC3)cc1 [pifithrin-α, 2-(2-imino-4,5,6,7-tetrahydrobenzothiazol-3-yl)-1-p-tolylethanone hydrobromide]
NK cell number compared with the control group [1]: statistically significant increase
order of ROS generation among treated groups [2]: trolox<pifithrin-α<trolox+pifithrin-α<apocynin<control group

Cc1c(C)c2c(c(C)c1O)CCC(C)(C(=O)O)O2 (stereo not shown) [trolox, 6-hydroxy-2,5,7,8-tetramethylchroman-2-carboxylic acid]
NK cell number compared with the control group [1]: statistically significant increase
ROS generation compared with the control group ([2]; NK cells cultured with inhibitor): significantly decreased
order of ROS generation among treated groups [2]: trolox<pifithrin-α<trolox+pifithrin-α<apocynin<control group
